According to patent publication US20220023289A1, “Application Of Pyrroloquinoline Quinone In Preparation Of Medicament Used For Preventing And Treating Acute Altitude Sickness And Acute Altitude Hypoxia Injury” (priority 2018, published 2022):

What was measured:
[1] = Rat body weight before the acute decompression hypoxia experiment (intragastric 7 days)
Protocol: Select healthy Wistar rats weight 160-200 g, half female and half male. After feeding for 3 days, these Wistar rats are randomly divided into ten groups according to their body weight, each group has 16±2 rats. The groups are divided as follows: five groups of the hypoxic exposure drug test group, respectively, are given 0.91 mg/kg, 1.83 mg/kg, 3.66 mg/kg, 7.31 mg/kg, and 14.63 mg/kg drugs. […] After continuous intragastric administration for 7 days, the animals in the hypoxic exposure group are simultaneously put into the decompression and hypoxia compound experimental chamber, the hatch is closed, and the pressure is reduced at a speed of 10 m/s. After being raised to an altitude of 6000 m and maintained for 8 hours, the speed in 10 m/s drops is reduced to normal altitude, open the hatch, and then take out the animal, collect blood samples (after standing for 1 hour, the supernatant is centrifuged and stored at −20° C.), and liver tissue samples. Detection indicator includes body weight, serum blood glucose, ATP, lactic acid, endothelin, nitric oxide, SOD, CO, MDA related to oxidative stress, and total protein, albumin, triglycerides, total cholesterol, high-density lipoprotein cholesterol, low-density lipoprotein cholesterol, glutamic pyruvic transaminase, total bilirubin, gluamic oxalacetic transaminase, serum urea nitrogen, creatinine, uric acid, lactate dehydrogenase, creatine kinase, α-hydroxybutyrate dehydrogenase; liver ATP, hepatic glycogen. Except that the formal oxygen control animal group is not put into the decompression and hypoxia compound experimental chamber, other experimental conditions and detection indicators are the same.

[2] = Mice weight before hypoxia tolerance test of simulated 10000 m altitude acute decompression
[3] = administration for 14 days, 1.32 mg/kg
[4] = administration for 14 days, 2.64 mg/kg
[5] = administration for 14 days, 5.28 mg/kg
[6] = administration for 14 days, 10.56 mg/kg
[7] = administration for 14 days, 21.12 mg/kg
[8] = administration for seven days, 1.32 mg/kg
[9] = administration for seven days, 2.64 mg/kg
[10] = administration for seven days, 5.28 mg/kg
[11] = administration for seven days, 10.56 mg/kg
[12] = administration for seven days, 21.12 mg/kg
[13] = administration for three days, 1.32 mg/kg
[14] = administration for three days, 2.64 mg/kg
[15] = administration for three days, 5.28 mg/kg
[16] = administration for three days, 10.56 mg/kg
[17] = administration for three days, 21.12 mg/kg
[18] = seven days, repeat experiment in male mice, 1.32 mg/kg
[19] = seven days, repeat experiment in male mice, 2.64 mg/kg
[20] = seven days, repeat experiment in male mice, 5.28 mg/kg
[21] = seven days, repeat experiment in male mice, 10.56 mg/kg
[22] = seven days, repeat experiment in male mice, 21.12 mg/kg

O=C(O)c1cc(C(=O)O)c2c(n1)C(=O)C(=O)c1cc(C(=O)O)[nH]c1-2 [PQQ, pyrroloquinoline quinone]
rat body weight Female 7 days ([1]; 3.66 mg/kg): 172.1 ± 2.2 g | rat body weight Male 1 day ([1]; 3.66 mg/kg): 170.8 ± 10.8 g | rat body weight Male 7 days ([1]; 3.66 mg/kg): 198.3 ± 9.0 g | rat body weight Female 1 day ([1]; 7.31 mg/kg): 154.3 ± 7.7 g | rat body weight Female 7 days ([1]; 7.31 mg/kg): 171.1 ± 8.6 g | rat body weight Male 1 day ([1]; 7.31 mg/kg): 169.9 ± 9.9 g | rat body weight Male 7 days ([1]; 7.31 mg/kg): 198.6 ± 11.6 g | rat body weight Female 1 day ([1]; 14.63 mg/kg): 152.7 ± 7.2 g | rat body weight Female 7 days ([1]; 14.63 mg/kg): 166.0 ± 4.1 g | rat body weight Male 1 day ([1]; 14.63 mg/kg): 171.6 ± 10 g | rat body weight Male 7 days ([1]; 14.63 mg/kg): 199.6 ± 12.5 g | effect on body weight ([1]; female rats, 7 days): did not affect | effect on weight ([1]; male rats, 7 days): did not affect | Mice weight Female 1 day [2, 3]: 16.13 ± 1.20 g | Mice weight Female 7 days [2, 3]: 20.45 ± 1.37 g | Mice weight Male 1 day [2, 3]: 16.36 ± 1.47 g | Mice weight Male 7 days [2, 3]: 22.88 ± 1.78 g | Mice weight Male 14 days [2, 3]: 30.85 ± 2.32 g | Mice weight Female 1 day [2, 4]: 15.75 ± 1.07 g | Mice weight Female 7 days [2, 4]: 21.41 ± 1.62 g | Mice weight Male 1 day [2, 4]: 16.63 ± 1.87 g | Mice weight Male 7 days [2, 4]: 22.58 ± 1.41 g | Mice weight Male 14 days [2, 4]: 28.13 ± 2.70 g | Mice weight Female 1 day [2, 5]: 15.63 ± 1.12 g | Mice weight Female 7 days [2, 5]: 20.47 ± 2.11 g | Mice weight Male 1 day [2, 5]: 17.01 ± 1.91 g | Mice weight Male 7 days [2, 5]: 23.68 ± 2.02 g | Mice weight Male 14 days [2, 5]: 29.44 ± 2.15 g | Mice weight Female 1 day [2, 6]: 15.84 ± 1.33 g | Mice weight Female 7 days [2, 6]: 21.68 ± 1.66 g | Mice weight Male 1 day [2, 6]: 16.58 ± 1.68 g | Mice weight Male 7 days [2, 6]: 23.13 ± 1.73 g | Mice weight Male 14 days [2, 6]: 19.58 ± 2.11 g | Mice weight Female 1 day [2, 7]: 15.68 ± 0.91 g | Mice weight Female 7 days [2, 7]: 20.10 ± 2.07 g | Mice weight Male 1 day [2, 7]: 16.86 ± 1.71 g | Mice weight Male 7 days [2, 7]: 23.67 ± 1.77 g | Mice weight Male 14 days [2, 7]: 30.81 ± 2.76 g | Mice weight Female 1 day [2, 8]: 18.10 ± 1.19 g | Mice weight Female 7 days [2, 8]: 21.36 ± 1.98 g | Mice weight Male 1 day [2, 8]: 18.46 ± 1.36 g | Mice weight Male 7 days [2, 8]: 22.19 ± 2.69 g | Mice weight Female 1 day [2, 9]: 18.19 ± 1.24 g | Mice weight Female 7 days [2, 9]: 21.40 ± 1.92 g | Mice weight Male 1 day [2, 9]: 18.31 ± 1.01 g | Mice weight Male 7 days [2, 9]: 23.51 ± 3.09 g | Mice weight Female 1 day [2, 10]: 17.95 ± 1.28 g | Mice weight Female 7 days [2, 10]: 22.71 ± 1.38 g | Mice weight Male 1 day [2, 10]: 18.38 ± 1.85 g | Mice weight Male 7 days [2, 10]: 22.04 ± 3.25 g | Mice weight Female 1 day [2, 11]: 17.99 ± 1.41 g | Mice weight Female 7 days [2, 11]: 22.66 ± 1.68 g | Mice weight Male 1 day [2, 11]: 18.26 ± 1.15 g | Mice weight Male 7 days [2, 11]: 22.41 ± 1.79 g | Mice weight Female 1 day [2, 12]: 18.35 ± 1.62 g | Mice weight Female 7 days [2, 12]: 23.94 ± 2.10 g | Mice weight Male 1 day [2, 12]: 18.00 ± 1.78 g | Mice weight Male 7 days [2, 12]: 23.54 ± 3.92 g | Mice weight Female [2, 13]: 18.22 ± 1.16 g | Mice weight Male [2, 13]: 19.97 ± 0.84 g | Mice weight Female [2, 14]: 18.79 ± 1.14 g | Mice weight Male [2, 14]: 19.65 ± 0.83 g | Mice weight Female [2, 15]: 18.10 ± 0.76 g | Mice weight Male [2, 15]: 20.16 ± 1.18 g | Mice weight Female [2, 16]: 17.95 ± 1.14 g | Mice weight Male [2, 16]: 19.73 ± 0.85 g | Mice weight Female [2, 17]: 18.48 ± 1.01 g | Mice weight Male [2, 17]: 19.28 ± 0.95 g | Mice weight Male 1 day [2, 18]: 19.84 ± 1.84 g | Mice weight Male 7 days [2, 18]: 27.14 ± 2.66 g | Mice weight Male 1 day [2, 19]: 19.66 ± 1.08 g | Mice weight Male 7 days [2, 19]: 26.78 ± 3.14 g | Mice weight Male 1 day [2, 20]: 19.75 ± 1.27 g | Mice weight Male 7 days [2, 20]: 26.47 ± 2.88 g | Mice weight Male 1 day [2, 21]: 19.90 ± 1.06 g | Mice weight Male 7 days [2, 21]: 27.33 ± 2.27 g | Mice weight Male 1 day [2, 22]: 19.85 ± 1.00 g | Mice weight Male 7 days [2, 22]: 26.73 ± 2.37 g | Mice weight Female ([2]; single dose test, 2.64 mg/kg): 17.25 ± 1.23 g | Mice weight Male ([2]; single dose test, 2.64 mg/kg): 19.71 ± 0.52 g | Mice weight Female ([2]; single dose test, 5.28 mg/kg): 17.32 ± 1.35 g | Mice weight Male ([2]; single dose test, 5.28 mg/kg): 19.51 ± 0.68 g | Mice weight Female ([2]; single dose test, 10.56 mg/kg): 17.24 ± 0.96 g | Mice weight Male ([2]; single dose test, 10.56 mg/kg): 19.16 ± 0.34 g
